Paper PMC11928584, “H105A peptide eye drops promote photoreceptor survival in murine and human models of retinal degeneration” (Communications Medicine, 2025)
Where a SMILES comes first, the peptide text is derived from it.

Legend:
[1] = test system: photoreceptors of rd10 mice; assay: PSVue-550 fluorescence fundoscopy of photoreceptor cell death (PS externalization); type: in vivo, mouse; conditions: for PS externalization / photoreceptor cell death vs vehicle: daily eye drops 5 µl of 1 mg/ml from P15, PSVue-550 fundoscopy P21
Excerpt: (§1) Fluorescence fundoscopy with a cell death probe was chosen as a simple method for monitoring photoreceptor cell death in alive animals. A fluorescent probe, bis (zinc^2+-dipicolylamine)-550, (PSVue®-550) (Molecular Targeting Technologies Inc, cat. P-1005) was reconstituted in Hanks’ Balanced Salt Solution (HBSS, Quality Biological, cat. 114-062-101) according to the manufacturer’s instructions[28],[36]. This probe is suitable for in vivo use to specifically and transiently label dying photoreceptors, such as in living rats with retinal degeneration the Royal College of Surgeons rat model, in a non-invasive and non-toxic method without the need of intraocular injection. Briefly, a stock of 1 mM solution of PSVue®-550 was stored in the dark at 4 °C and used within 14 days directly as eye drop. After 3-4 h of light onset each mouse received eye drops of 5–10 μl of 1 mM PSVue®-550 in the left eye and HBSS in the right eye as control. The eye drop volume was chosen such that the eye cavity was filled without spillage outside the eye, and it was modified depending on eye size. […] To obtain in vivo retinal images of fundi, at 24 h after the probe was administered, the mice were anesthetized, and pupils were dilated with 1% tropicamide for 5 min and kept hydrated with GenTeal. Fluorescence was imaged using a retinal imaging microscope (Micron III, Phoenix Research Labs) using an FF02- 475/50 nm excitation filter (Semrock, Inc.). We observed some variability in optic nerve (ON) fluorescence that could not be readily explained, so the optic nerve was excluded from analyses in all samples.
(§2) To determine the natural history of photoreceptor death of rd10 and rd10/Serpinf1^-/- mice, we assessed photoreceptor cell death in live mice using the fluorescent probe termed PSVue® 550 to monitor PS externalization by fluorescence fundoscopy (Supplementary Fig. 2). Given the reports about the retinas of rd10 mice starting to show histological changes at P16, and with a peak in the number of TUNEL+ nuclei in the ONL at P17-18[13], we monitored PS externalization in photoreceptors of these mice undergoing degeneration before death onset. Eye drops of 1 mM PSVue® 550 solution in HBSS were administered to left eyes and HBSS (vehicle) to their contralateral right eyes of each mouse at ages P16, P20, P22 or P24. PS externalization was determined by fluorescence fundoscopy 24 h post-administration. PSVue labeling of phosphatidylserine (PS) externalization associated with photoreceptor cell death in the rd10 retina (Supplementary Figs. 2, 3).
(§3) Fig. 2 Effect of PEDF peptide eye drops on protection against photoreceptor cell death in rd10 and rd10/Serpinf1^-/- mice. a Illustration of the experimental timeline of peptide application. Eye drops containing 5 µl of 17-mer, H105A, or R99A peptides in HBSS were administered daily to eyes of rd10 and rd10/Serpinf1^-/- mice from P15 to P20. Vehicle (HBSS) was applied in contralateral eyes. At P20, PSVue® was applied via eye drops, and fluorescence fundoscopy was conducted at P21 to assess photoreceptor cell death. RE and LE refer to the right and left eyes, respectively. b Fluorescence fundoscopy micrographs. Representative fluorescence fundoscopy images of retinas from mice treated as in Panel a with eyedrops of 1 mg/ml of each peptide. Quantification of fluorescence intensity was performed using ImageJ, with average intensity values corrected for background fluorescence from eyes that had not received PSVue or peptides. Each line represents data from one animal comparing treated and contralateral eyes, with five eyes (n = 5) per condition. Statistical significance was determined by paired t-test (****p ≤ 0.0001, and ns > 0.05). Scale bar = 0.5 mm. c Dose response of peptide eye drops. Representative fluorescence fundoscopy micrographs showing retinas treated with varying concentrations of 17-mer and H105A peptides (0.0 mg/ml to 1.0 mg/ml) in rd10 and rd10/Serpinf1^-/- mice. […]

[2] = test system: photoreceptors of rd10/Serpinf1-/- mice; assay: as above; type: in vivo, mouse; conditions: daily eye drops 5 µl of 1 mg/ml from P15, PSVue-550 fundoscopy P21
Excerpt: as §1, §2, §3

[3] = Localization of H105A in retina by anti-H105A immunofluorescence; type: in vivo; conditions: RhoP23H/+ mice, daily eye drops P14-P19, anti-H105A immunofluorescence
Description: To detect the transduced H105A peptide, we used a custom-made monoclonal recombinant Fab antibody raised against H105A (Bio-Rad AbD Serotec GmbH, Puchheim, Germany). The custom-made antibodies were produced by HuCAL® technology with a FLAG-tag for detection. […] Cells were maintained in DMEM 4.5 g/l (Thermo Fisher Scientific, cat. 11960), supplemented with 10% fetal bovine serum (FBS), 100 U/ml penicillin and 100 µg/ml streptomycin (Thermo Fisher Scientific, cat. 15140148) in 5% CO2 and at 37 °C. […] The specificity of the custom antibody to the H105A peptide was assessed by pre-incubation with 400 µM H105A peptide at 25 °C for 1 h before using it for immunodetection. […]
Daily eye-drop-delivered H105A between P14 and P19 penetrated the retina, reached the photoreceptors, and w a s detected throughout the retina, mostly in the IS/OS ( c). […]
(g-i) Negative controls for immunostaining. No staining was detected in untreated Rho P23H/+ retinas at P 19 (g), in sections where the antibody was pre-incubated with 400 µM H105A peptide for one hour (Panel h), or in sections without the primary antibody (i). […]

Row | SMILES | PS externalization / photoreceptor cell death vs vehicle [1] | PS externalization / photoreceptor cell death vs vehicle [2] | eye drop concentration effective in restraining PS externalization (as low as) ([1]; titration 0.0-1.0 mg/ml, daily eye drops) [mg/mL] | localization of H105A in retina [3]
1 | CC[C@H](C)[C@H](NC(=O)[C@H](CC(C)C)NC(=O)[C@H](CC(=O)O)NC(=O)[C@H](Cc1ccc(O)cc1)NC(=O)[C@H](Cc1ccc(O)cc1)NC(=O)[C@H](CC(C)C)NC(=O)[C@H](C)NC(=O)[C@H](CCCNC(=N)N)NC(=O)[C@H](Cc1c[nH]cn1)NC(=O)[C@@H](NC(=O)[C@@H](NC(=O)[C@H](CO)NC(=O)[C@H](CCC(=O)O)NC(=O)[C@@H](NC(=O)[C@H](C)NC(=O)[C@@H](N)CCC(N)=O)[C@@H](C)O)[C@@H](C)CC)[C@@H](C)CC)C(=O)N[C@@H](CO)C(=O)O [R99A] (H-QATESIIHRALYYDLIS-OH) | no major efficacy | no major efficacy | – | –
2 | CC[C@H](C)[C@H](NC(=O)[C@H](CC(C)C)NC(=O)[C@H](CC(=O)O)NC(=O)[C@H](Cc1ccc(O)cc1)NC(=O)[C@H](Cc1ccc(O)cc1)NC(=O)[C@H](CC(C)C)NC(=O)[C@H](C)NC(=O)[C@H](CCCNC(=N)N)NC(=O)[C@H](C)NC(=O)[C@@H](NC(=O)[C@@H](NC(=O)[C@H](CO)NC(=O)[C@H](CCC(=O)O)NC(=O)[C@@H](NC(=O)[C@H](CCCNC(=N)N)NC(=O)[C@@H](N)CCC(N)=O)[C@@H](C)O)[C@@H](C)CC)[C@@H](C)CC)C(=O)N[C@@H](CO)C(=O)O [H105A] (H-QRTESIIARALYYDLIS-OH) | diminished fundi fluorescence | diminished fundi fluorescence | 0.5 | reaching the photoreceptors
